Experimental data as given in patent US20110020448A1, “PHARMACEUTICAL COMPOSITION FOR THE TREATMENT AND PREVENTION OF GLAUCOMA” (MAZENCE, INC., priority 2007, published 2011).

Columns and labels:
retinal ganglion cells = test: Viability of retinal ganglion cells (RGCs) in TTT laser optic nerve injury (glaucoma) model; format: in vivo, C57BL/6 mice; details: TTT laser model mice, rodent chow containing 50 mg/kg, fed 2 weeks; RGCs labeled day 13, counted 24 h later; FIG. 1
Method: (§1) Group 3: Experimental group (n=7) fed with a rodent chow containing 50 mg/kg of a pharmaceutical composition including compound 1 of experimental example 1 as an active ingredient, as a glaucoma model.
(§2) 8-week-old C57BL/6 mice were anesthetized with an intraperitoneal injection of a mixture of ketamine (100 mg/kg) and xylazine (5 mg/kg), and a mydriatic agent was applied to dilate the pupils of the eyes. Thereafter, an application of transpupillary thermotherapy (TTT), 200 spot size, 50-mW power, and 30-sec duration, was performed over the optic disc of an eye. The aiming beam of the laser was focused on the centre of the optic disc, a viscoelastic material was instilled, a cover glass was placed, and laser beams were irradiated while confirming the optic disc through the dilated pupils by naked eyes. The thus-established optic nerve injury model will be hereinafter referred to as a TTT laser model. […]
Twenty-four hours after labeling, the animals were euthanized and the eyes were enucleated and fixed for 2 hours with neutral formalin. […] Under a fluorescence microscope (×400), the fluorescently labeled retinal ganglion cells were counted in 12 regions in the four quadrants of each retina approximately 0.5 mm, 1 mm and 1.5 mm from the edge of the optic disc. […]

axons of the optic nerve = test: Axonal viability (Bodian staining) in TTT laser optic nerve injury (glaucoma) model; format: in vivo, C57BL/6 mice; details: TTT laser model mice, rodent chow containing 50 mg/kg; day 14 after laser irradiation; FIG. 2
Method: as §1, §2
The retinal cross-section and the optic nerve cross-section were treated with a silver solution for 48 hours, and color development was carried out using a reducing agent, followed by toning and fixation. […] In order to evaluate the axonal viability, the stained axons were counted with a light microscope (×1000), in 20 regions at intervals of 10 in the four quadrants of each retina, from the center of the optic nerve tissue section slide. […]

CC1(C)CCC2=C(O1)c1ccccc1C(=O)C2=O [Compound 1, β-lapachone]
density of retinal ganglion cells relative to the TTT control group (Group 2) (retinal ganglion cells): ≥ 1.7 fold | axonal density relative to the TTT control group (Group 2) (axons of the optic nerve): ≥ 1.5 fold
